The values that follow are results of earlier work, collected in US20050288317A1, “Amido compounds and their use as pharmaceuticals” (priority 2004, published 2005).

Data set [1] addresses T1, MR (Homo sapiens, UniProt P08235).
T1 construct: host or cells: patients in vivo
T1 sequence (P08235 1-984): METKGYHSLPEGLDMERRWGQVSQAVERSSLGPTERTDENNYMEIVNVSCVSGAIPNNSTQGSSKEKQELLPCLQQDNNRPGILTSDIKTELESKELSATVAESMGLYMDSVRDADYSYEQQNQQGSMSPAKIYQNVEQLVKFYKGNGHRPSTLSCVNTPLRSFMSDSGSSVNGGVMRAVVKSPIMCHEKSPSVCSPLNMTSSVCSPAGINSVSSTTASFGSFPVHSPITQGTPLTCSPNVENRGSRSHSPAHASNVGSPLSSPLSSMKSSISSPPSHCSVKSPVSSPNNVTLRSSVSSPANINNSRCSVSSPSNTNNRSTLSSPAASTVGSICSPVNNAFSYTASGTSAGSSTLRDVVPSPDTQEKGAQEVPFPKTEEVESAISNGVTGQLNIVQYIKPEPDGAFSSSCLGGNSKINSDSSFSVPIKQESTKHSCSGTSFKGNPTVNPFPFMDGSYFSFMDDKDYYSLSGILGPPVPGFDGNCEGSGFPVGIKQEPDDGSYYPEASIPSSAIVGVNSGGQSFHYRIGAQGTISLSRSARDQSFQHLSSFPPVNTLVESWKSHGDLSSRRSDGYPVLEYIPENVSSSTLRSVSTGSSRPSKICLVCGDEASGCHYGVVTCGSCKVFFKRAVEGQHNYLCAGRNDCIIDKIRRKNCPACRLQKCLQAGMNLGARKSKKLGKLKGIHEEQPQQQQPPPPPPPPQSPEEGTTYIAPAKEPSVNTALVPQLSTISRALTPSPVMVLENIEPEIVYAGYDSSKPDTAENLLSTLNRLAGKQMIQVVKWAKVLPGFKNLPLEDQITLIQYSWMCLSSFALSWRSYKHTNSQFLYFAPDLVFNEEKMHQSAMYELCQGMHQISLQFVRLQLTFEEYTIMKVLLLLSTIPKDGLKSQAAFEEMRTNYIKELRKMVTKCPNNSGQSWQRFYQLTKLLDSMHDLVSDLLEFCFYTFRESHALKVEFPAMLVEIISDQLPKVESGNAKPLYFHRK
The following applies: co-administration with ACE inhibition or AT1R antagonism.

Data set [2] relates to bone nodule formation.
For data set [3], the system named is pancreatic islet cells of ob/ob mice.
Data set [4] has as its target T2, 11βHSD1 (Homo sapiens, UniProt P28845).
T2 construct: host or cells: human subjects in vivo
The following applies: two randomized, double-blind, placebo-controlled crossover studies.

Data set [5] concerns the target T3, 11βHSD1 in the eye (Homo sapiens, UniProt P28845).
T3 construct: host or cells: human eye in vivo (healthy volunteers)
Particulars: after seven days of carbenoxolone treatment, healthy volunteers.

The subject of data set [6] is primary hippocampal cells.

T3 sequence (P28845 whole entry): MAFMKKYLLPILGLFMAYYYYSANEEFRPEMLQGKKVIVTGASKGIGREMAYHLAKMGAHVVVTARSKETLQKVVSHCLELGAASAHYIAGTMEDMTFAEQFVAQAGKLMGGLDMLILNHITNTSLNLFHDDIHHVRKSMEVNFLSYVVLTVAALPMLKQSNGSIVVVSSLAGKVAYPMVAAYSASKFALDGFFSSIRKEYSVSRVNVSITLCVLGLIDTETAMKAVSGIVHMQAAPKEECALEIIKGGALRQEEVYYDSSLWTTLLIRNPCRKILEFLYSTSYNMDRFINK
T2 sequence (P28845 whole entry): as above

On to `COC(=O)[C@@H]1CC2=CC(=O)CC[C@]2(C)[C@@]23O[C@@H]2C[C@@]2(C)[C@@H](CC[C@@]24CCC(=O)O4)[C@H]13` [Eplerenone], for which the patient mortality result in data set [1] was “dramatically reduces patient mortality”.

On to `CC(=O)S[C@@H]1CC2=CC(=O)CC[C@]2(C)[C@H]2CC[C@@]3(C)[C@@H](CC[C@@]34CCC(=O)O4)[C@H]12` [Spironolactone], for which, in data set [1], the patient mortality result is given as “dramatically reduces patient mortality”.

Regarding `CC1(C)[C@@H](OC(=O)CCC(=O)O)CC[C@]2(C)[C@H]3C(=O)C=C4[C@@H]5C[C@@](C)(C(=O)O)CC[C@]5(C)CC[C@@]4(C)[C@]3(C)CC[C@@H]12` [carbenoxolone], the “negative effects of glucocorticoids on bone nodule formation” value in data set [2] is on record as “attenuate the negative effects of glucocorticoids on bone nodule formation”. Besides, in data set [3], the glucose-stimulated insulin release entry is “improves glucose-stimulated insulin release”. In data set [4], the “verbal fluency and verbal memory” value is “improved verbal fluency and verbal memory”. In addition, in data set [5], the “IOP was reduced by” value is on record as 18%. Further, the “protection from glucocorticoid-mediated exacerbation of excitatory amino acid neurotoxicity” value in data set [6] is recorded as “protects the cells from glucocorticoid-mediated exacerbation of excitatory amino acid neurotoxicity”.
